Columns and labels:
human GPR40 [1] = target: T1, human GPR40 (Homo sapiens, UniProt O14842); experiment: Cell-based aequorin assay; conditions: CHO cells stably transfected with GPR40 and aequorin; 0.01% HSA
T1 construct: expressed in transfected cells; host or cells: CHO cells stably transfected with GPR40 and Aequorin
Method: Cell-based aequorin assays were employed to characterize the modulatory activity of compounds on the GPR40 signaling pathway. In an exemplary assay, CHO cells were stably transfected with both GPR40 and Aequorin (Euroscreen). Cells were detached from the tissue culture dish with 2 mL of trypsin (0.25% (w/v)). Trypsinization was halted with 28 mL of Hanks Buffered Salt Solution containing 20 mM Hepes (H/HBSS) and 0.01% fatty acid-free human serum albumin (HSA). Coelantrazine is added to 1 ug/mL, and the cells were incubated for 2 hours at room temperature. Compounds were dissolved in DMSO for preparation of 10 mM stock solutions. Compounds were diluted in H/HBSS containing 0.01% HSA. Serial dilutions of the test compounds were prepared to determine dose response.
Aequorin luminescence measurements were made using an EG&G Berthold 96-well luminometer, and the response was measured over a 20 second interval after cells and compounds were mixed. The maximum relative light units was plotted to determine dose response. The EC50 (effective concentration to reach 50% maximal response) was determined from the dose response plot.

human GPR40 [2] = target: T1, human GPR40; experiment: Inositol phosphate accumulation assay; type: cell-based; conditions: A9 cell line stably transfected with GPR40; 1 hour at 37° C.; read-out: IP3 EC50
Method: An A9 cell line stably transfected with GPR40 (A9_GPR40) was used in IP accumulation assays. A9_GPR40 cells were plated in 96-well plates containing 20,000 cells/well in DMEM containing 10% FBS. After the cells attached to the well surface, the media was replaced with inositol free DMEM containing 10% dialyzed FBS and 1 μCi, mL ^3H-inositol and incubated for 16 hours. Compounds were diluted in HBSS/10 mM LiCl containing a desired amount of HSA and added directly to cells. Following 1 hour incubation at 37° C., the media was replaced with 100 μL of 20 mM formic acid to quench the reaction. 50 μL of the extract was then added to 100 μL of SPA beads, incubated overnight, and measured on a TopCount the following day.

T1 sequence (O14842 whole entry): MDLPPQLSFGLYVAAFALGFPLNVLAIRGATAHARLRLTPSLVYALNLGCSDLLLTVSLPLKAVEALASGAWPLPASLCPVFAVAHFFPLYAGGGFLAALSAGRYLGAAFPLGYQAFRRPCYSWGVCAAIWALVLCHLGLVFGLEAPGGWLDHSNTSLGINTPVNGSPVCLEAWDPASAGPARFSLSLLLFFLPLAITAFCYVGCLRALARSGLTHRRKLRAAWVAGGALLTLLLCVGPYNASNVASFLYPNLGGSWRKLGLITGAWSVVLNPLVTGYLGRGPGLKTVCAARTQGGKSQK

| SMILES | EC50 (human GPR40 [1]) [nM] | EC50 (human GPR40 [2]) [nM] |
| --- | --- | --- |
| COc1ccc(F)c(-c2c(F)cc(COc3ccc4c(c3)[C@]3(CC4)C[C@H]3C(=O)O)cc2[C@H]2CCCC2(C)C)c1 (single isomer, unassigned) [Example 16] | 10 to 100 | < 10 |
| COc1cc(-c2ccc(COc3ccc4c(c3F)[C@]3(CC4)C[C@H]3C(=O)O)cc2[C@@H](OC)C(C)(C)C)c(F)cn1 (single isomer, unassigned) [Example 30] | 10 to 100 | < 10 |
| CC(C)COc1ccc(COc2ccc3c(c2)[C@]2(CCC3)C[C@H]2C(=O)O)cc1[C@@H]1CCCC1(C)C (single isomer, unassigned) [Example 130] | 1000 to 10000 | 100 to 1000 |
| CCCCOc1cc(COc2ccc3c(c2)[C@]2(CC3)C[C@H]2C(=O)O)ccc1-c1cc(OC)ccc1F [Example 24] | 100 to 1000 | 10 to 100 |
| COc1ccc(F)c(-c2ccc(COc3ccc4c(c3)[C@]3(CC4)C[C@H]3C(=O)O)cc2[C@H]2CCCC2(C)C)c1 (single isomer, unassigned) [Example 11] | 10 to 100 | < 10 |
| COc1ccc(F)c(-c2c(F)cc(COc3ccc4c(c3)[C@]3(CC4)C[C@H]3C(=O)O)cc2[C@@H]2CCCC2(C)C)c1 (single isomer, unassigned) [Example 18] | 100 to 1000 | < 10 |
| COc1cc(-c2ccc(COc3ccc4c(c3)[C@]3(CC4)C[C@H]3C(=O)O)cc2[C@@H]2CCCC2(C)C)c(F)cn1 [Example 19, (1R,2R)-6′-(3-((R)-2,2-Dimethylcyclopentyl)-4-(5-fluoro-2-methoxypyridin-4-yl)benzyloxy)-2′,3′-dihydrospiro[cyclopropane-1,1′-indene]-2-carboxylic acid] | 10 to 100 | < 10 |
| COc1ccc(F)c(-c2cc(F)c(COc3ccc4c(c3)[C@]3(CC4)C[C@H]3C(=O)O)cc2[C@H]2CCCC2(C)C)c1 (single isomer, unassigned) [Example 14] | 100 to 1000 | < 10 |
| CCCOc1ccc(COc2ccc3c(c2)[C@]2(CCC3)C[C@H]2C(=O)O)cc1[C@@H]1CCCC1(C)C (single isomer, unassigned) [Example 129] | 1000 to 10000 | 100 to 1000 |
| COc1ccc(F)c(-c2ccc(COc3ccc4c(c3)[C@]3(CC4)C[C@H]3C(=O)O)cc2C2(OC)CCCC2)c1 [Example 22] | 100 to 1000 | 10 to 100 |
| CCCCOc1cc(COc2ccc3c(c2)[C@]2(CC3)C[C@H]2C(=O)O)ccc1-c1cccc(OC)c1 [Example 25] | 100 to 1000 | 100 to 1000 |
| COc1cc(-c2cc(F)c(COc3ccc4c(c3)[C@]3(CC4)C[C@H]3C(=O)O)cc2[C@@H]2CCCC2(C)C)c(F)cn1 (single isomer, unassigned) [Example 17] | 10 to 100 | < 10 |
| COc1ccc(COc2ccc3c(c2)[C@]2(CCC3)C[C@H]2C(=O)O)cc1[C@@H]1CCCC1(C)C (single isomer, unassigned) [Example 128] | 1000 to 10000 |  |
| COc1ccc(F)c(-c2ccc(COc3ccc4c(c3)[C@]3(CC4)C[C@@H]3C(=O)O)cc2C2=CCCC2(C)C)c1 [Example 3] | > 10000 |  |

Further lines, results first:

| EC50 (human GPR40 [1]) [nM] | EC50 (human GPR40 [2]) [nM] | SMILES |
| --- | --- | --- |
| 100 to 1000 | 10 to 100 | COc1ccc(F)c(-c2ccc(COc3ccc4c(c3)C3(CC4)CCC3C(=O)O)cc2[C@@H]2CCCC2(C)C)c1 (single isomer, unassigned) [Example 148] |
| 100 to 1000 | < 10 | COc1cc(-c2ccc(COc3ccc4c(c3F)[C@]3(CC4)C[C@H]3C(=O)O)cc2[C@@H]2CCCC2(C)C)c(F)cn1 (single isomer, unassigned) [Example 32] |
| 100 to 1000 | < 10 | COc1cc(-c2ccc(COc3cc(F)c4c(c3F)[C@]3(CC4)C[C@H]3C(=O)O)cc2[C@@H]2CCCC2(C)C)c(F)cn1 (single isomer, unassigned) [Example 41, (1R,2R)-6′-(3-((R)-2,2-dimethylcyclopentyl)-4-(5-fluoro-2-methoxypyridin-4-yl)benzyloxy)-4′,7′-difluoro-2′,3′-dihydrospiro[cyclopropane-1,1′-indene]-2-carboxylic acid or (1S,2S)-6′-(3-((R)-2,2-dimethylcyclopentyl)-4-(5-fluoro-2-methoxypyridin-4-yl)benzyloxy)-4′,7′-difluoro-2′,3′-dihydrospiro[cyclopropane-1,1′-indene]-2-carboxylic acid] |
| 100 to 1000 | 10 to 100 | COc1cc(-c2ccc(COc3ccc4c(c3)C3(CCC4)CCC3C(=O)O)cc2[C@@H]2CCCC2(C)C)c(F)cn1 (single isomer, unassigned) [Example 156] |
| 100 to 1000 | 100 to 1000 | COc1cc(-c2ccc(COc3cc4c(cn3)CC[C@@]43C[C@@H]3C(=O)O)cc2[C@@H](OC)C(C)(C)C)c(F)cn1 (single isomer, unassigned) [Example 59, (2′S,5S)-3-({4-(5-Fluoro-2-methoxypyridin-4-yl)-3-[(1S)-1-methoxy-2,2-dimethylpropyl]phenyl}methoxy)-6,7-dihydrospiro[cyclopenta[c]pyridine-5,1′-cyclopropane]-2′-carboxylic acid or (2′S,5S)-3-({4-(5-fluoro-2-methoxypyridin-4-yl)-3-[(1R)-1-methoxy-2,2-dimethylpropyl]phenyl}methoxy)-6,7-dihydrospiro[cyclopenta[c]pyridine-5,1′-cyclopropane]-2′-carboxylic acid] |
| 100 to 1000 | < 10 | COc1ccc(F)c(-c2ccc(COc3cc(F)c4c(c3F)[C@]3(CC4)C[C@H]3C(=O)O)cc2[C@H]2CCCC2(C)C)c1 (single isomer, unassigned) [Example 33] |
| 100 to 1000 | 10 to 100 | COc1ccc(F)c(-c2ccc(COc3ccc4c(c3)[C@]3(CCC4)CC[C@@H]3C(=O)O)cc2[C@@H]2CCCC2(C)C)c1 (single isomer, unassigned) [Example 154] |
| 10 to 100 | < 10 | COc1ccc(F)c(-c2ccc(COc3ccc4c(c3F)[C@]3(CC4)C[C@H]3C(=O)O)cc2[C@@H](OC)C(C)(C)C)c1 (single isomer, unassigned) [Example 31] |
| 100 to 1000 | 10 to 100 | COc1ccc(F)c(-c2ccc(COc3ccc4c(c3)[C@]3(CC4)CC[C@@H]3C(=O)O)cc2C2=CCCC2(C)C)c1 (single isomer, unassigned) [Example 151] |
| 100 to 1000 | < 10 | COc1cc(-c2ccc(COc3ccc4c(c3)[C@]3(CC4)CC[C@@H]3C(=O)O)cc2[C@@H]2CCCC2(C)C)c(F)cn1 (single isomer, unassigned) [Example 150] |
| 100 to 1000 | < 10 | COc1cc(-c2ccc(COc3cc(F)c4c(c3F)[C@]3(CC4)C[C@H]3C(=O)O)cc2[C@H](OC)C(C)(C)C)c(F)cn1 (single isomer, unassigned) [Example 127] |
| 100 to 1000 | 10 to 100 | COc1ccc(F)c(-c2ccc(COc3ccc4c(c3)[C@]3(CCC4)CC[C@@H]3C(=O)O)cc2C2=CCCC2(C)C)c1 (single isomer, unassigned) [Example 158] |
| 10 to 100 | < 10 | COc1cc(-c2ccc(COc3ccc4c(c3)[C@]3(CCC4)C[C@H]3C(=O)O)cc2[C@@H](OC)C(C)(C)C)c(F)cn1 (single isomer, unassigned) [Example 44] |
| 100 to 1000 | < 10 | COc1cc(-c2ccc(COc3ccc4c(c3F)[C@]3(CCC4)C[C@H]3C(=O)O)cc2[C@@H]2CCCC2(C)C)c(F)cn1 [Example 55] |
| 100 to 1000 | 10 to 100 | COc1cc(-c2ccc(COc3ccc4c(c3F)[C@]3(CC4)C[C@H]3C(=O)O)cc2[C@@H]2CCCC2(C)C)c(Cl)cn1 (stereo in doubt) [Example 125] |
| 100 to 1000 | < 10 | COc1cc(-c2ccc(COc3cc4c(cn3)CC[C@]43C[C@H]3C(=O)O)cc2[C@@H](OC)C(C)(C)C)c(F)cn1 (single isomer, unassigned) [Example 58, (2′R,5R)-3-({4-(5-Fluoro-2-methoxypyridin-4-yl)-3-1[(1S)-1-methoxy-2,2-dimethylpropyl]phenyl}methoxy)-6,7-dihydrospiro[cyclopenta[c]pyridine-5,1′-cyclopropane]-2′-carboxylic acid or (2′R,5R)-3-({4-(5-fluoro-2-methoxypyridin-4-yl)-3-[(1R)-1-methoxy-2,2-dimethylpropyl]phenyl}methoxy)-6,7-dihydrospiro[cyclopenta[c]pyridine-5,1′-cyclopropane]-2′-carboxylic acid] |
| 100 to 1000 | < 10 | COc1cc(-c2ccc(COc3ccc4c(c3)[C@]3(CCC4)C[C@H]3C(=O)O)cc2[C@H](OC)C(C)(C)C)c(Cl)cn1 (racemic) [Example 139] |
| > 10000 |  | COc1ccc(F)c(-c2ccc(COc3cc(F)c4c(c3F)[C@]3(CC4)C[C@@H]3C(=O)O)cc2[C@H]2CCCC2(C)C)c1 (single isomer, unassigned) [Example 35] |

Reference: patent US8748462B2, “Spirocyclic GPR40 modulators” (Amgen Inc., priority 2008, dated 2014)
